Data reported in patent US20060147511A1, “Liposomal glucocorticoids” (priority 2002, published 2006).

Experiments:
[1] = system: Antigen-induced arthritis; assay: Antigen-induced arthritis in rats, determination of joint swelling; assay type: in vivo; conditions: 0.375 mg per kg body weight
Procedure: (§1) Antigen-induced arthritis was provoked in test animals (rats) according to Buchner (“Behandlung der antigeninduzierten Arthritis der Ratte mit Anti-Makrophagenprinzipien und monoklonalen Anti-CD4 Antikörpern”, Ph.D. thesis 1996, Friedrich-Alexander University Erlangen-Nuremberg, Germany, p. 129).
(§2) Arthritis was provoked on day 0 according to Buchner by intra-articular injection of the antigen into the synovial gap in the right knee. The arthritic animals were treated intravenously with liposomal dexamethasone phosphate (formulation A, 3.75 mg/kg) 6, 24 and 48 hours after induction of arthritis. Free dexamethasone phosphate (formulation K, likewise 3.75 mg/kg) and physiological salt solution (saline) were used as controls. The effect of sample administration was established using the following parameters: • determination of joint swelling (cf., FIG. 1)
Arthritis was provoked in rats in analogy to Example 3, and the rats were treated with the following formulations containing only one tenth of the dexamethasone phosphate dose specified in Example 3:
In analogy to Example 3, antigen-induced arthritis was provoked in the test animals. Arthritis was provoked on day 0 by intra-articular injection of the antigen into the synovial gap in the right knee. […]

[2] = system: Antigen-induced arthritis; assay: Antigen-induced arthritis in rats, histological examination of joint inflammation and joint cartilage destruction; assay type: in vivo; conditions: for Degree of cartilage destruction / Degree of joint inflammation: 3.75 mg/kg intravenously 6, 24 and 48 hours after induction, scale 0: no changes, 6: massive changes compared to healthy knee
Procedure: as §1, §2
histological examination of inflammation parameters and of joint cartilage destruction parameters (cf. FIG. 2 and Table 2)
Degree of joint cartilage destruction and joint inflammation of arthritic animals after treatment
0: no changes compared to healthy knee
In analogy to Example 3, antigen-induced arthritis was provoked in the test animals. Arthritis was provoked on day 0 by intra-articular injection of the antigen into the synovial gap in the right knee. The arthritic animals were treated intravenously with liposomal dexamethasone phosphate (formulation B, C, 3.75 mg/kg each time, according to Table 4) 6, 24 and 48 hours after induction of arthritis. Free dexamethasone phosphate (formulation K, likewise 3.75 mg/kg) and physiological salt solution (saline) were used as controls. The effect of sample administration was established using the following parameters: • determination of joint swelling (cf., FIG. 5)
histological examination of inflammation parameters and of joint cartilage destruction parameters (cf., FIG. 2 and Table 5)

SMILES: C[C@@H]1C[C@H]2[C@@H]3CCC4=CC(=O)C=C[C@]4(C)[C@@]3(F)[C@@H](O)C[C@]2(C)[C@@]1(O)C(=O)COP(=O)(O)O [Formulation K, dexamethasone phosphate]
- Suppression of antigen-induced arthritis [1]: developed all symptoms of the animal model after short amelioration
- Histological sections of arthritic knee joints (FIG. 2), finding ([2]; Hematoxylin/eosin staining, magnified 92fold): massive inflammation and destruction of cartilage and bone
- Degree of cartilage destruction ([2]; Table 2, rats): 2.75
- Degree of joint inflammation ([2]; Table 2, rats): 3.5
- Degree of cartilage destruction ([2]; Table 5, rats): 2.75
- Degree of joint inflammation ([2]; Table 5, rats): 3.5
- Joint cartilage destruction and inflammatory reactions after treatment (in words) ([2]; rats, 3.75 mg/kg intravenously): considerably less effective
